According to paper PMC11284788, “NN1213 – A Potent, Long-Acting, and Selective Analog of Human Amylin” (Journal of Medicinal Chemistry, 2024):
Where two headings read alike, the source gives them in different places. Numbered stars: 1 amine (or outer) side, 2 acyl side, 3 side chain; on linkers, the order of the positions; unused ones are H or OH. Bridge positions count the residues as written; N and C are the ends. Side chains are listed from the residue outwards. Peptide text beside a SMILES is read from it. * marks the point of attachment. C20 diacid = O=C(O)CCCCCCCCCCCCCCCCCCC(=O)*; γGlu = O=C(O)[C@H](CCC(=O)[*:2])N[*:1]

Key:
[1] = HMWP content by size-exclusion chromatography; assay type: physicochemical; details: covalent dimers and polymers prior to fibril formation testing, SEC, % of total absorbance area at 215 nm
Summary of the method: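 Amylin analogs analysed before fibril-formation testing by isocratic SEC in 0.5 M NaCl, 10 mM sodium dihydrogen phosphate, 5 mM ortho-phosphoric acid, 50% (v/v) 2-propanol. HMWP (covalent dimers/polymers) given as peak absorbance area percentage of total, assuming equal extinction coefficients for HMWP and main peak.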

hAMY3R = target: T1, hAMY3R (Homo sapiens, UniProt O60896+P30988); test: scintillation proximity binding assay, hAMY3R membranes; set-up: expressed in transfected cells; host or cells: BHK tk-ts 13, transient co-transfection; membranes for the SPA, whole cells for the species-specific assays; details: for ratio hCTR/hAMY3R: ratio of binding IC50 values
T1 sequence (P30988 25-474): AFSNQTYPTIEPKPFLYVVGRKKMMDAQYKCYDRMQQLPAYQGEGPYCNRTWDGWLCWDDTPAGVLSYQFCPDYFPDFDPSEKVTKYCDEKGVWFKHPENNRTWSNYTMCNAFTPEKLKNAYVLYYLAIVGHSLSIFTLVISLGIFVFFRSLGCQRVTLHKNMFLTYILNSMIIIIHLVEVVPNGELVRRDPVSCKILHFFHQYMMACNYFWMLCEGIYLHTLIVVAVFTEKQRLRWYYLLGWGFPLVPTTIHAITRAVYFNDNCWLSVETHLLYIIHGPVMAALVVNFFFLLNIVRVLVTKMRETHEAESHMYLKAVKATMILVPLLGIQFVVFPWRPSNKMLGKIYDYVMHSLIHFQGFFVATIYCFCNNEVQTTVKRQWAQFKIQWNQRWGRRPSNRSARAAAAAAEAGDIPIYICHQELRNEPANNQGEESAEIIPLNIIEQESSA
T1 sequence (O60896 24-148 partner): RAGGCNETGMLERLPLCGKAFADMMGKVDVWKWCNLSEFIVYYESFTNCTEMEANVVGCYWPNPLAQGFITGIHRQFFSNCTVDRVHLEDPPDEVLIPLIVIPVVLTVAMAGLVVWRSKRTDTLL
Protocol: The apparent binding affinities were determined using a scintillation proximity assay with beads from PerkinElmer and cell membranes containing the AMY3R or CTRs. […] Membranes were harvested and membranes were prepared and kept at −80 °C until use. The assay was performed in a 384-well Optiplate (PerkinElmer). Membranes were mixed with scintillation proximity assay beads in a 1:1 ratio. […] Samples were analyzed on a TopCounter (Packard). The IC50 values were calculated using GraphPad Prism. See Supporting Information S7: SAR Screening Assay Methods (Binding Assays (Human and Rat)) for more information.
Binding Assays (Human and Rat). Brief descriptions of the methods used to determine binding affinities for SAR analysis are described below. Curves and IC50 values were plotted and calculated in GraphPad Prism using nonlinear regression (one site binding competition analysis), with pIC50 values […]
values were used to calculate the binding affinity ratios in order to express the selectivity of compounds for the AMY3R versus the CTR.
CTR Binding Assay. The binding assay was performed using scintillation proximity assay (SPA) beads (RPNQ0001) from PerkinElmer and cell membranes containing either the hCTR or rCTR. BHK […]
(§1) Membranes were prepared in the following way: the cells were rinsed with PBS and incubated with Versene for approximately 5 min before harvesting. The cells were flushed with PBS and the cell-suspension was centrifuged for 5 min at 1000 rpm. Cells were homogenized (Ultra Turrax) in a buffer […]
containing 20 mM Na-HEPES and 0.1 mM EDTA (pH 7.4, buffer 2). The resulting pellet was re-suspended in buffer 2 and protein concentration was measured (BCA protein assay, Pierce). The homogenate was kept cold during the whole procedure. The membranes were stored at –80 °C until […]
The binding assay was performed in a 384-well Optiplate (PerkinElmer) in a total volume of 40 μL.
Membranes were mixed with SPA beads in a 1:1 ratio. […]
mg/well. Test compounds were dissolved in DMSO and further diluted in assay buffer (50 mM HEPES, pH 7.4, 1 mM CaCl2, 5 mM MgCl2, 0.1% ovalbumin, and 0.02% Tween-20).
Calcitonin (NEX422 PerkinElmer) was dissolved in assay buffer and added to the Optiplate at a final […]
prior to centrifugation (1500 rpm, 10 min). Samples were analyzed on TopCounter (Packard).
AMY3R Binding Assay. The binding assay was performed using SPA beads (RPNQ0001) from PerkinElmer and cell membranes containing either the hAMY3R or rAMY3R. BHK tk-ts 13 cells were […]
as §1, with “and cultured as described above. Membranes” for “Membranes”, “buffer containing 20 mM Na-HEPES and 10 mM EDTA (pH 7.4), and” for “buffer”
The resulting pellet was re-suspended, homogenized, and
7.4, buffer 2). The resulting pellet was re-suspended in buffer 2 and protein concentration was measured (BCA protein assay, Pierce). The homogenate was kept cold during the whole procedure.
The membranes were stored at –80 °C until use.
Membranes were mixed with SPA beads in a 1:1 ratio. The final concentration of SPA beads was 0.05 mg/well. Test compounds were dissolved in DMSO and further diluted in assay buffer (50 mM […]
rAMY (NEX448 PerkinElmer) was dissolved in assay buffer and added to the Optiplate at a final

[2] = SPA, BHK cell membranes, 125I-rat amylin, 120 min 25 °C, read-out: hAMY3R IC50
[3] = SPA binding assay, Tables S13 and S15

Row | SMILES | HMWP ([1]; analogs 10–21 (pH 4.0 series)) [%] | IC50 (hAMY3R; SPA binding assay, Tables S13 and S15, read-out: hAMY3R pIC50 (converted)) [nM] | IC50 (hAMY3R; [2]) [nM] | ratio hCTR/hAMY3R (hAMY3R) | HMWP ([1]; analogs 1–9 (pH 7.5 series)) [%] | hAMY3R pIC50 (hAMY3R; [3])
1 | CC[C@H](C)[C@H](NC(=O)[C@H](C)NC(=O)CNC(=O)[C@H](Cc1ccccc1)NC(=O)[C@H](CC(N)=O)NC(=O)[C@@H]1CCCN1C(=O)[C@H](CO)NC(=O)[C@H](CO)NC(=O)[C@H](Cc1c[nH]cn1)NC(=O)[C@H](CCCNC(=N)N)NC(=O)[C@H](CC(C)C)NC(=O)[C@H](Cc1ccccc1)NC(=O)[C@H](CC(N)=O)NC(=O)[C@H](C)NC(=O)[C@H](CC(C)C)NC(=O)[C@H](CCCNC(=N)N)NC(=O)[C@H](CCC(N)=O)NC(=O)[C@@H](NC(=O)[C@H](C)NC(=O)[C@@H]1CSSC[C@H](NC(=O)[C@@H](N)CCCCNC(=O)CC[C@H](NC(=O)CCCCCCCCCCCCCCCCCCC(=O)O)C(=O)O)C(=O)N[C@@H](CC(N)=O)C(=O)N[C@@H]([C@@H](C)O)C(=O)N[C@@H](C)C(=O)N[C@@H]([C@@H](C)O)C(=O)N1)[C@@H](C)O)C(=O)N1CCC[C@H]1C(=O)N[C@@H](CO)C(=O)N[C@@H](CO)C(=O)N[C@H](C(=O)N[C@@H](CC(N)=O)C(=O)N[C@H](C(=O)NCC(=O)N[C@@H](CO)C(=O)N[C@@H](CCCCN)C(=O)N[C@H](C(=O)N[C@@H](Cc1ccc(O)cc1)C(N)=O)[C@@H](C)O)C(C)C)[C@@H](C)O [Peptide 14] | 3.0 | 0.891 | 0.885 | 48 | – | –
2 | CC(C)C[C@H](NC(=O)[C@H](CCCNC(=N)N)NC(=O)[C@H](CCC(N)=O)NC(=O)[C@@H](NC(=O)[C@H](C)NC(=O)[C@@H]1CSSC[C@H](NC(=O)[C@@H](N)CCCCNC(=O)CC[C@H](NC(=O)CC[C@H](NC(=O)CCCCCCCCCCCCCCCCCCC(=O)O)C(=O)O)C(=O)O)C(=O)N[C@@H](CC(N)=O)C(=O)N[C@@H]([C@@H](C)O)C(=O)N[C@@H](C)C(=O)N[C@@H]([C@@H](C)O)C(=O)N1)[C@@H](C)O)C(=O)N[C@@H](C)C(=O)N[C@@H](CC(=O)O)C(=O)N[C@@H](Cc1ccccc1)C(=O)N[C@@H](CC(C)C)C(=O)N[C@@H](CCCNC(=N)N)C(=O)N[C@@H](Cc1c[nH]cn1)C(=O)N[C@@H](CO)C(=O)N[C@@H](CO)C(=O)N[C@@H](CC(N)=O)C(=O)N1CCC[C@H]1C(=O)N[C@@H](Cc1ccccc1)C(=O)NCC(=O)N[C@@H](C)C(=O)N1CCC[C@H]1C(=O)N[C@@H](CC(C)C)C(=O)N[C@@H](CO)C(=O)N[C@@H](CO)C(=O)N[C@H](C(=O)N[C@@H](CC(N)=O)C(=O)N[C@H](C(=O)NCC(=O)N[C@@H](CO)C(=O)N[C@@H](CC(=O)O)C(=O)N[C@H](C(=O)N[C@@H](Cc1ccc(O)cc1)C(N)=O)[C@@H](C)O)C(C)C)[C@@H](C)O [Peptide 7] (H-K([γGlu-γGlu-C20 diacid])CNTATCATQRLADFLRHSSNPFGAPLSSTNVGSDTY-NH2; disulfide 2-7) | – | – | 1.12 | 10 | 3 | 8.95
3 | CC[C@H](C)[C@H](NC(=O)[C@H](C)NC(=O)CNC(=O)[C@H](Cc1ccccc1)NC(=O)[C@H](CC(N)=O)NC(=O)[C@@H]1CCCN1C(=O)[C@H](CO)NC(=O)[C@H](CO)NC(=O)[C@H](Cc1c[nH]cn1)NC(=O)[C@H](CCCNC(=N)N)NC(=O)[C@H](CC(C)C)NC(=O)[C@H](Cc1ccccc1)NC(=O)[C@H](CC(N)=O)NC(=O)[C@H](C)NC(=O)[C@H](CC(C)C)NC(=O)[C@H](CCCNC(=N)N)NC(=O)[C@H](CCC(N)=O)NC(=O)[C@@H](NC(=O)[C@H](C)NC(=O)[C@@H]1CSSC[C@H](NC(=O)[C@H](CCCCN)NC(=O)COCCOCCNC(=O)COCCOCCNC(=O)CC[C@H](NC(=O)CCCCCCCCCCCCCCCCCCC(=O)O)C(=O)O)C(=O)N[C@@H](CC(N)=O)C(=O)N[C@@H]([C@@H](C)O)C(=O)N[C@@H](C)C(=O)N[C@@H]([C@@H](C)O)C(=O)N1)[C@@H](C)O)C(=O)N1CCC[C@H]1C(=O)N[C@@H](CO)C(=O)N[C@@H](CO)C(=O)N[C@H](C(=O)N[C@@H](CC(N)=O)C(=O)N[C@H](C(=O)NCC(=O)N[C@@H](CO)C(=O)N[C@@H](CC(N)=O)C(=O)N[C@H](C(=O)N[C@@H](Cc1ccc(O)cc1)C(N)=O)[C@@H](C)O)C(C)C)[C@@H](C)O [Peptide 10] | 2.7 | – | – | 90 | – | 8.94
4 | CC[C@H](C)[C@H](NC(=O)[C@H](C)NC(=O)CNC(=O)[C@H](Cc1ccccc1)NC(=O)[C@H](CC(N)=O)NC(=O)[C@@H]1CCCN1C(=O)[C@H](CO)NC(=O)[C@H](CO)NC(=O)[C@H](Cc1c[nH]cn1)NC(=O)[C@H](CCCNC(=N)N)NC(=O)[C@H](CC(C)C)NC(=O)[C@H](Cc1ccccc1)NC(=O)[C@H](CC(N)=O)NC(=O)[C@H](C)NC(=O)[C@H](CC(C)C)NC(=O)[C@H](CCCNC(=N)N)NC(=O)[C@H](CCC(N)=O)NC(=O)[C@@H](NC(=O)[C@H](C)NC(=O)[C@@H]1CSSC[C@H](NC(=O)[C@H](CCCNC(=N)N)NC(=O)CNC(=O)CC[C@H](NC(=O)CCCCCCCCCCCCCCCCCCC(=O)O)C(=O)O)C(=O)N[C@@H](CC(N)=O)C(=O)N[C@@H]([C@@H](C)O)C(=O)N[C@@H](C)C(=O)N[C@@H]([C@@H](C)O)C(=O)N1)[C@@H](C)O)C(=O)N1CCC[C@H]1C(=O)N[C@@H](CO)C(=O)N[C@@H](CO)C(=O)N[C@H](C(=O)N[C@@H](CC(N)=O)C(=O)N[C@H](C(=O)NCC(=O)N[C@@H](CO)C(=O)N[C@@H](Cc1c[nH]cn1)C(=O)N[C@H](C(=O)N[C@@H](Cc1ccc(O)cc1)C(N)=O)[C@@H](C)O)C(C)C)[C@@H](C)O [Peptide 19] ({C20 diacid-γGlu}-GRCNTATCATQRLANFLRHSSPNFGAIPSSTNVGSHTY-NH2; disulfide 3-8) | 0.3 | – | – | 45 | – | 9.46
